Structures are written as SMILES.

POLRMT, sequence (O00411 42-1230): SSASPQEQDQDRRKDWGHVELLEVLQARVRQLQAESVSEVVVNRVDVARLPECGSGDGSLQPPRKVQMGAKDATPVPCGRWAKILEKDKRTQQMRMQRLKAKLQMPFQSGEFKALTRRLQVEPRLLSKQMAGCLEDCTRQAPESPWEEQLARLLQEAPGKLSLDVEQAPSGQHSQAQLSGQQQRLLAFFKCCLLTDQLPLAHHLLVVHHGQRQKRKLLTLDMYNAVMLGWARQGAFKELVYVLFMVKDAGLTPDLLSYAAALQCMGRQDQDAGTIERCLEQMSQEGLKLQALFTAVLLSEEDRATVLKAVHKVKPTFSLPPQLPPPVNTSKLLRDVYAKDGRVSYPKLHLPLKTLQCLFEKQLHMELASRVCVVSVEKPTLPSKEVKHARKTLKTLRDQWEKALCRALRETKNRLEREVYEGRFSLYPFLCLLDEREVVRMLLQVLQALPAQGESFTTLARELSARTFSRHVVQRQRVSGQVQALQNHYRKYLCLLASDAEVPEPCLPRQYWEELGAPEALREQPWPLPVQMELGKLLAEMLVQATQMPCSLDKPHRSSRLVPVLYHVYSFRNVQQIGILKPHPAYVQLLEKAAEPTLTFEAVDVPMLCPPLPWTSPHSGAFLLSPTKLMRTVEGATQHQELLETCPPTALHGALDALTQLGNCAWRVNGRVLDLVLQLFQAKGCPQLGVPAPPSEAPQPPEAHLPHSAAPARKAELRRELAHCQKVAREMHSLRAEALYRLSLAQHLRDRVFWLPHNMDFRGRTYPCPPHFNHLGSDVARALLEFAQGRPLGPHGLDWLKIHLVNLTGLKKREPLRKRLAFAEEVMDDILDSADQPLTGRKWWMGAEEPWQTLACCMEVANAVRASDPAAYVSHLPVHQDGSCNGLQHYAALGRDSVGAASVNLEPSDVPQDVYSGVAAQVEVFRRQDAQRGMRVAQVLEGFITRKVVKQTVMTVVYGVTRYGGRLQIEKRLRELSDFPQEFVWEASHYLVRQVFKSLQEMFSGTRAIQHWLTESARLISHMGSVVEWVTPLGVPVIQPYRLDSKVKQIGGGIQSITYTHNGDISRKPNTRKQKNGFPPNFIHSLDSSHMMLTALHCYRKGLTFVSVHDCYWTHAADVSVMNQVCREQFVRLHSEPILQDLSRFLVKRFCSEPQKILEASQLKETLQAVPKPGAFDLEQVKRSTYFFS

The first test has as its target POLRMT (Homo sapiens, UniProt O00411). The test can be described thus: homogeneous TR-FRET assay of mitochondrial transcription (inhibition of POLRMT). It counts as biochemical. The conditions noted are these: isoquinolinone compounds (Table 1). Here is the method: The inhibitory activity of the compounds of the present invention against POLRMT were determined by assays based on Bergbrede, T., et al., “An adaptable high-throughput technology enabling the identification of specific transcription modulators,” SLAC Discov., 22, 378-386 (2017).
The ability of some compounds of the present invention to inhibit POLRMT were determined in a homogeneous TR-FRET Assay using high-throughput screening in a 384-well plate format. This method is used to monitor the activity of mitochondrial transcription through measurement of its product, a 407 bp long RNA transcript. Detection of the product is facilitated by hybridization of two DNA-oligonucleotide probes to specific and adjacent sequences within the RNA product sequence. Upon annealing of the probes, two fluorophores are coupled directly to an acceptor nucleotide probe (ATTO647, 5′), or introduced via a coupled streptavidin with a biotinylated donor nucleotide probe (Europium cryptate) that is brought into sufficient proximity to serve as a fluorescence-donor-acceptor pair. Thus, a FRET signal at 665 nm is generated upon excitation at 340 nm.
Proteins used as transcription factors (POLRMT: NP_005026.3, TFAM: NP_003192.1, TFB2M: NP_071761.1) are diluted from their stocks to working concentrations of 1 μM, 20 μM and 4 μM respectively, in a dilution buffer containing 20 mM Tris-HCl (pH 8.0), 200 mM NaCl, 10% (v/v) glycerol, 1 mM Dithiothreitol (DTT), 0.5 mM EDTA.
DNA template is a pUC18 plasmid with the mitochondrial light strand promotor sequence (1-477) cloned between HindIII and BamHI sites. The DNA template is restriction linearized proximal to the promotor 3′-end (pUC-LSP).
The reaction mixture (10 uL) containing 7.5 nM POLRMT, 15 nM of TFB2M, 30 nM of TFAM, 0.5 nM of DNA template and 500 μM nucleotide triphosphate mix (NTPs) in a reaction buffer (containing 10 mM Tris-HCl (pH 7.5), 10 mM MgCl2, 40 mM NaCl, 10 mM DTT, 0.005% (w/v) Tween-20, 160 units/ml Rnase inhibitor and 0.1 mg/mL BSA) are dispensed to compounds in microplates, using a Thermo Multidrop® dispenser, and incubated at 37° C. in a VWR INCU-Line incubator for 60 minutes after mixing. No nucleotide triphosphate mix is added to negative control samples. Microplates with compounds to be tested in the assay are prepared from 10 mM compound stocks in 100% DMSO, equal amounts of DMSO without any compound are added to positive control and negative control samples.
During the incubation, a mix of the detection reagents is prepared in a buffer such that the enzymatic reaction is terminated due to chelating of Mg-ions and increased ionic strength, containing 50 mM Tris-HCl (pH 7.5), 700 mM NaCl, 20 mM EDTA, and 0.010% (w/v) Tween-20. Europium-streptavidin is pre-incubated with a 200-fold molar excess of a random sequence oligonucleotide to block unspecific binding of oligo, for two hours at ambient temperature in the dark. Afterwards, the blocked Europium-streptavidin is kept on ice until use.
At the end of the enzymatic reaction time, 5 μL detection oligo mix in the detection buffer is added, and assay plates are mixed and kept at ambient temperature for one hour, protected from light. The concentration of the Acceptor nucleotide oligo (e.g., ATTO647N-5′-[…]-3′) and Donor nucleotide oligo (e.g., bio-5′-AACACATCTCT(-bio)GCCAAACCCCA-bio-3′) in each assay well is 1 nM, and 3 nM, respectively.
After incubation with oligo mix, 5 μL of pre-blocked Europium-streptavidin reagent is dispensed to each assay well, assay plates are again mixed and kept at ambient temperature for one hour, protected from light.
The generated signal is measured with BMG Pherastar microtiter plate reader with a TRF light unit, using excitation at 340 nm, an integration time of 200 μs, and a delay time of 100 μs, before detection at 620 nm and 665 nm. The ratio of donor- and acceptor-fluorescence is used as a measure of the generated transcript product (i.e. enzymatic activity).
For orientation: TR-FRET usually uses a lanthanide donor and a delayed reading to cut background.
`Cc1ccccc1-c1c[nH]c(=O)c2cc(OC(C)C#N)ccc12` (single isomer, unassigned) [Example 12, 2-((1-oxo-4-(o-tolyl)-1,2-dihydroisoquinolin-7-yl)oxy)propanenitrile] came in with an IC50 of 200 nM.
Regarding `Cc1ccccc1-c1c[nH]c(=O)c2cc(OC(C)C#N)ccc12` (single isomer, unassigned) [Example 13, 2-((1-oxo-4-(o-tolyl)-1,2-dihydroisoquinolin-7-yl)oxy)propanenitrile], the concentration for half-maximal inhibition (IC50) turned out to be 900 nM.
Same read-out and setting: as for `COCC(C)Oc1ccc2c(-c3ccccc3C)c[nH]c(=O)c2c1` (single isomer, unassigned) [Example 26, 7-((1-methoxypropan-2-yl)oxy)-4-(o-tolyl)isoquinolin-1(2H)-one], the figure is 1000 nM; as for `COCC(C)Oc1ccc2c(-c3ccccc3C)c[nH]c(=O)c2c1` (single isomer, unassigned) [Example 27, 7-((1-methoxypropan-2-yl)oxy)-4-(o-tolyl)isoquinolin-1(2H)-one], 1000 nM; as for `CC(C#N)Oc1ccc2c(-c3ccc(F)cc3Cl)c[nH]c(=O)c2c1` (single isomer, unassigned) [Example 49, 2-((4-(2-chloro-4-fluorophenyl)-1-oxo-1,2-dihydroisoquinolin-7-yl)oxy)propanenitrile], 5000 nM.
The same measure, in the same setting: as for `CC(C#N)Oc1ccc2c(-c3ccc(F)cc3Cl)c[nH]c(=O)c2c1` (single isomer, unassigned) [Example 50, 2-((4-(2-chloro-4-fluorophenyl)-1-oxo-1,2-dihydroisoquinolin-7-yl)oxy)propanenitrile], the figure is 600 nM.
Still for that read-out and setting: the result for `COCC(Oc1ccc2c(-c3ccccc3C)c[nH]c(=O)c2c1)C(N)=O` (single isomer, unassigned) [Example 52] reads more than 100000 nM; that for `COCC(Oc1ccc2c(-c3ccccc3C)c[nH]c(=O)c2c1)C(N)=O` (single isomer, unassigned) [Example 53], 13000 nM.
The molecule `COCC(Oc1ccc2c(-c3ccccc3C)c[nH]c(=O)c2c1)C(=O)N(C)C` (single isomer, unassigned) [Example 54] had an IC50 of more than 100000 nM.
The molecule `COCC(Oc1ccc2c(-c3ccccc3C)c[nH]c(=O)c2c1)C(=O)N(C)C` (single isomer, unassigned) [Example 55, 3-methoxy-N,N-dimethyl-2-((1-oxo-4-(o-tolyl)-1,2-dihydroisoquinolin-7-yl)oxy)propenamide] had a concentration for half-maximal inhibition (IC50) of 2000 nM.
The same measure, in the same setting: as for `CC(C#N)Oc1ccc2c(-c3ccccc3Cl)c[nH]c(=O)c2c1` (single isomer, unassigned) [Example 57, 2-((4-(2-chlorophenyl)-1-oxo-1,2-dihydroisoquinolin-7-yl)oxy)propanenitrile], the figure is 300 nM; as for `CC(C#N)Oc1ccc2c(-c3ccccc3Cl)c[nH]c(=O)c2c1` (single isomer, unassigned) [Example 58, 2-((4-(2-chlorophenyl)-1-oxo-1,2-dihydroisoquinolin-7-yl)oxy)propanenitrile], 2000 nM; as for `Cc1ccccc1-c1c[nH]c(=O)c2cc(OC(C)C(N)=O)ccc12` (single isomer, unassigned) [Example 72], 17000 nM.
The same measure, in the same setting: as for `Cc1ccccc1-c1c[nH]c(=O)c2cc(OC(C)C(N)=O)ccc12` (single isomer, unassigned) [Example 73], the figure is 400 nM; as for `COCC(C#N)Oc1ccc2c(-c3ccccc3C)c[nH]c(=O)c2c1` (single isomer, unassigned) [Example 75, 3-methoxy-2-((1-oxo-4-(o-tolyl)-1,2-dihydroisoquinolin-7-yl)oxy)propanenitrile], 4000 nM.
The same measure, in the same setting: as for `COCC(C#N)Oc1ccc2c(-c3ccccc3C)c[nH]c(=O)c2c1` (single isomer, unassigned) [Example 76, 3-methoxy-2-((1-oxo-4-(o-tolyl)-1,2-dihydroisoquinolin-7-yl)oxy)propanenitrile], the figure is 200 nM; as for `C[C@@H](Oc1ccc2c(-c3ccc(F)cc3Cl)c[nH]c(=O)c2c1)C(=O)N1CCCC(S(C)(=O)=O)C1` (single isomer, unassigned) [Example 95], 1000 nM; as for `C[C@@H](Oc1ccc2c(-c3ccc(F)cc3Cl)c[nH]c(=O)c2c1)C(=O)N1CCCC(S(C)(=O)=O)C1` (single isomer, unassigned) [Example 96], 2000 nM.
Regarding `Cc1ccccc1-c1c[nH]c(=O)c2cc(O[C@H](C)C(=O)N3CCCC(S(C)(=O)=O)C3)ccc12` (single isomer, unassigned) [Example 97], the IC50 was found to be 300 nM.
Consider `Cc1ccccc1-c1c[nH]c(=O)c2cc(O[C@H](C)C(=O)N3CCCC(S(C)(=O)=O)C3)ccc12` (single isomer, unassigned) [Example 98], for which half-maximal inhibition (IC50) required 300 nM.
On the same count and under the same terms, the result for `C[C@H]1CN(C(=O)[C@@H](C)Oc2ccc3c(-c4ccc(F)cc4Cl)c[nH]c(=O)c3c2)C[C@H](C)O1` (single isomer, unassigned) [Example 124] reads 500 nM.
`C[C@H]1CN(C(=O)[C@@H](C)Oc2ccc3c(-c4ccc(F)cc4Cl)c[nH]c(=O)c3c2)C[C@H](C)O1` (single isomer, unassigned) [Example 125] registered an IC50 of 200 nM.
In the case of `COc1ccc2c(-c3ccc(F)cc3Cl)c[nH]c(=O)c2c1` [Example 1, 4-(2-chloro-4-fluorophenyl)-7-methoxyisoquinolin-1(2H)-one], it took 10000 nM to reach half-maximal inhibition (IC50).
Still for that read-out and setting: as for `O=c1[nH]cc(-c2ccc(F)cc2Cl)c2ccc(O)cc12` [Example 2, 4-(2-chloro-4-fluorophenyl)-7-hydroxyisoquinolin-1(2H)-one], the figure is more than 100000 nM.
Still for that read-out and setting: the result for `Cc1ccccc1-c1c[nH]c(=O)c2cc(OC(C)C)ccc12` [Example 4, 7-isopropoxy-4-(o-tolyl)isoquinolin-1(2H)-one] reads 400 nM; that for `CCC(C)Oc1ccc2c(-c3ccccc3C)c[nH]c(=O)c2c1` (stereo not drawn) [Example 5, 7-(sec-butoxy)-4-(o-tolyl)isoquinolin-1(2H)-one], 200 nM; that for `Cc1ccccc1-c1c[nH]c(=O)c2cc(OCC(C)C)ccc12` [Example 6, 7-isobutoxy-4-(o-tolyl)isoquinolin-1(2H)-one], 200 nM.
Still for that read-out and setting: the result for `CC(C)Oc1ccc2c(-c3ccc(F)cc3Cl)c[nH]c(=O)c2c1` [Example 7, 4-(2-chloro-4-fluorophenyl)-7-isopropoxyisoquinolin-1(2H)-one] reads 800 nM; that for `Cc1ccccc1-c1c[nH]c(=O)c2cc(OCC(=O)N(C)C)ccc12` [Example 8, N,N-dimethyl-2-((1-oxo-4-(o-tolyl)-1,2-dihydroisoquinolin-7-yl)oxy)acetamide], 35000 nM.
Molecule `COCCOc1ccc2c(-c3ccccc3C)c[nH]c(=O)c2c1` [Example 9, 7-(2-methoxyethoxy)-4-(o-tolyl)isoquinolin-1(2H)-one] showed a concentration for half-maximal inhibition (IC50) of 3000 nM.
`Cc1ccccc1-c1c[nH]c(=O)c2cc(OCCN(C)C)ccc12` [Example 10, 7-(2-(dimethylamino)ethoxy)-4-(o-tolyl)isoquinolin-1(2H)-one] gave an IC50 of more than 100000 nM.

The same test, now with this note: quinolinone compounds (Table 2).
`Cc1ccccc1-c1cc(=O)[nH]c2cc(O[C@H](C)C(=O)N(C)C)ccc12` (single isomer, unassigned) [Example Q7] returned a half-inhibitory concentration (IC50) of 9000 nM.
The same measure, in the same setting: the result for `Cc1ccccc1-c1cc(=O)[nH]c2cc(O[C@@H](C)C(=O)N(C)C)ccc12` (single isomer, unassigned) [Example Q8] reads more than 100000 nM.

The term IC50 denotes the concentration at which inhibition is half-maximal. Low readings indicate higher potency, high ones lower potency.

(Values after patent publication US20240391875A1, “ISOQUINOLINONES AND QUINOLINONES AS MODULATORS OF POLRMT” (Pretzel Therapeutics, Inc., priority 2021, published 2024).)
